The target of the assay is T1, human CRTH2 (Homo sapiens, UniProt Q9Y5Y4).
T1 construct: Full-length human CRTH2 cDNA was generated by polymerase chain reaction (PCR); expressed in transfected cells; host or cells: 293 cells stably transfected with pHLT124 (pcDNA3.1(+)), G418-selected; named 293(124)
T1 sequence (Q9Y5Y4 1-395): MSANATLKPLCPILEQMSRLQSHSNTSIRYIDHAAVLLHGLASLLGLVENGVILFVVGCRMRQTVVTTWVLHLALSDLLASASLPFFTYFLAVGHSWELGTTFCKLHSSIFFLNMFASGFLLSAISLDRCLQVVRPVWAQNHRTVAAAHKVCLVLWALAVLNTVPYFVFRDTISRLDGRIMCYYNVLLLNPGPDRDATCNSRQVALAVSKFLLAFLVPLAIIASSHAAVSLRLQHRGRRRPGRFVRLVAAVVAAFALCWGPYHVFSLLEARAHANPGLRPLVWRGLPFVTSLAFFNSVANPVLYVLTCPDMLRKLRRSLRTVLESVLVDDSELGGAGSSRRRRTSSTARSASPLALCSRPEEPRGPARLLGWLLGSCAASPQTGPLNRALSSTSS
Briefly: Human CRTH2 binding assay (3H-PGD2 binding, 293(124) cells). The following applies: 3H-PGD2 binding to 293(124) cells stably expressing human CRTH2. As to the method:
Human CRTH2 Binding Assay
Full-length human CRTH2 cDNA was generated by polymerase chain reaction (PCR) using human genomic DNA as template and subsequently cloned into pcDNA3.1(+) (Invitrogen), generating a CRTH2 expression plasmid pHLT124. The plasmid was transfected into 293 cells, which […] CRTH2, using LipofectAMINETM reagents (Gibco/BRL). G418 ([…]) was added to the culture 48 h after transfection and cells were maintained under selection for 3 weeks to ensure that all surviving cells stably expressed CRTH2. These cells are labeled as 293(124) hereafter.
^3H-PGD2 binding assay was performed using 293(124) cells. In brief, cells were washed and suspended in RPMI containing 0.5% BSA and 20 mM HEPES. Each assay contained 25,000 cells, appropriate amount of test compound when necessary and a mixture of 1 nM ^3H-PGD2 (Amersham Pharmacia Biotech) and 30 nM of unlabeled PGD2 (Cayman Chemicals) in […] final volume. The cell mixture was incubated at room temperature for 2.5 h with shaking and the cells were separated from free ^3H-PGD2 and transferred onto a filter plate using a cell harvester. Radioactivity bound to the cells was measured on a liquid scintillation counter. Nonspecific binding was determined in the presence of […] of unlabeled PGD2.
By IC50 is commonly meant the midpoint of a concentration-inhibition curve. A high value points to weaker potency. In the case of `CC(=O)N(c1ccccc1)[C@H]1C[C@@H](C)N(C(=O)c2ccccc2)c2ccccc21` [Compound 3], the IC50 was less than 0.04 µM.

As for `CCCCC(=O)N(c1ccccc1)[C@H]1C[C@@H](C)N(C(=O)c2ccccc2)c2ccccc21` [Compound 4], the half-inhibitory concentration (IC50) is not below 0.04 µM.

`CC(=O)N(c1ccc(Cl)cc1)[C@H]1C[C@@H](C)N(C(=O)c2ccc(Oc3ccccc3)cc2)c2ccccc21` [Compound 9] showed an IC50 not below 0.04 µM.

In the case of `CC(=O)N[C@H]1C[C@@H](C)N(C(=O)c2ccccc2)c2ccccc21` [Compound 12], the IC50 was not below 0.04 µM.

The record behind these values is patent US20050038070A1, “Asthma and allergic inflammation modulators” (AMGEN INC., priority 2003, published 2005).
